Results published in US20260297042A1, “BIARYLAMIDE DERIVATIVES AND THEIR USE AS PKMYT1 INHIBITORS” (CANCER RESEARCH TECHNOLOGY LIMITED, priority 2023, published 2026).

How the values were obtained:
[1] = tested on: KYSE-30 cells; test: Cancer cell line proliferation assay, ATP-based cell viability (Cell Titre Glow), KYSE-30 (normal CCNE1); conditions: Homo sapiens, KYSE-30 cells (normal CCNE1), concentration that achieves 50% cell growth proliferation inhibition, read-out: KYSE30 Gl50
Outline: (§1)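 GI50 values, the concentrations halving cell growth, were derived from ATP-based luminescence (Cell Titre Glo) after PKMYT1 inhibitor exposure. Cells tested were OVCAR 3, an ovarian line with amplified CCNE1, and KYSE-30, which has normal CCNE1.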

[2] = target: T1, Human PKMYT1 (Homo sapiens, UniProt Q99640); test: PKMYT1 biochemical ADP-Glo enzymatic assay; conditions: ADP-Glo
T1 construct: Human PKMYT1 75-362 was cloned as a TEV cleavable 6xHis fusion; 6xHis (TEV cleavable) (cleaved yes); made in house; host or cells: bacterial cells
T1 sequence (Q99640 75-362): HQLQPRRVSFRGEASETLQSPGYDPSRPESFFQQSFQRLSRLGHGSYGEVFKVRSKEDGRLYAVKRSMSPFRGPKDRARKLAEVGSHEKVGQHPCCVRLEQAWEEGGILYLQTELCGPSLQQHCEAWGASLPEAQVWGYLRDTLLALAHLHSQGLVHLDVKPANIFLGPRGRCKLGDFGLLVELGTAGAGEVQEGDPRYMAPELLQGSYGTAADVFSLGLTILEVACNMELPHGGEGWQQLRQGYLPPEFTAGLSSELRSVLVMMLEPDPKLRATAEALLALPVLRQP
Outline: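 Measures inhibition of PKMYT1 autonomous ATP hydrolysis: bacterially expressed human enzyme (75-362, tag cleaved) at 15 nM with 500 µM ATP for 60 min at 26 °C, then ADP-Glo Max detection. IC50s accepted only when replicates agreed within 3-fold and curve r2 exceeded 0.9.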

[3] = tested on: OVCAR 3 cells; test: Cancer cell line proliferation assay, ATP-based cell viability (Cell Titre Glow), OVCAR 3 (CCNE1-amplified); conditions: KYSE30 (normal CCNE1) GI50 vs. OVCAR 3 (CCNE1-amplified) GI50
Outline: as §1

[4] = target: T2, Cellular PKMYT1 Biomarker CDK1 pT14 (Homo sapiens, UniProt Q99640); test: Inhibition of cellular PKMYT1 biomarker CDK1 pT14 in OVCAR 3 cells (immunoblot); format: cell-based; conditions: 20 hours incubation
T2 construct: read-out CDK1 phospho-T14 immunoblot
T2 sequence (Q99640 1-499): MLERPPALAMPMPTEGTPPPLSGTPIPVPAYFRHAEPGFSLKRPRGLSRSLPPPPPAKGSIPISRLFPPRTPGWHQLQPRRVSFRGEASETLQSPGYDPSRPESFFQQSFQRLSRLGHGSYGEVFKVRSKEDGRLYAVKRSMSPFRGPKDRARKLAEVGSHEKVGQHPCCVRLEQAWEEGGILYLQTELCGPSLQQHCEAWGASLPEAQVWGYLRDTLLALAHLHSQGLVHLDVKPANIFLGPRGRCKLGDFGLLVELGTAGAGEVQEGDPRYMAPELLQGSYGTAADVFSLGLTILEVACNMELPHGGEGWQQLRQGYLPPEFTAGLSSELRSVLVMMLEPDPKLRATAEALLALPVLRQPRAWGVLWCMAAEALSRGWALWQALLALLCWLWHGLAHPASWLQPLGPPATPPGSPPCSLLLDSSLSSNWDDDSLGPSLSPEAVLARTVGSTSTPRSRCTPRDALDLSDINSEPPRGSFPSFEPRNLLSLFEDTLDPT
Outline: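 Confluent OVCAR 3 cells treated with a compound concentration range for 20 h at 37 °C. Lysates analysed by automated capillary immunoblot for CDK1 phospho-T14, with vinculin, fluorescence detection; IC50 by regression.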

[5] = target: T3, WEE1 (Homo sapiens, UniProt P30291); test: Selectivity versus WEE1 assay (ADP-Glo enzymatic assay); format: biochemical; conditions: for IC50: ADP-Glo; for PKMYT1 vs. WEE1 selectivity: fold difference in selectivity for PKMYT1 over WEE1
T3 construct: purchased Thermo Fisher PR7373A
Outline: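 Same format as the PKMYT1 assay: WEE1 at 15 nM final with 30 µM ATP, 60 min at 26° C, ADP-Glo luminescence detection, IC50 by dose-response fitting.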

[6] = PKMYT1 kinase domain 15 nM, banded values

T3 sequence (P30291 whole entry): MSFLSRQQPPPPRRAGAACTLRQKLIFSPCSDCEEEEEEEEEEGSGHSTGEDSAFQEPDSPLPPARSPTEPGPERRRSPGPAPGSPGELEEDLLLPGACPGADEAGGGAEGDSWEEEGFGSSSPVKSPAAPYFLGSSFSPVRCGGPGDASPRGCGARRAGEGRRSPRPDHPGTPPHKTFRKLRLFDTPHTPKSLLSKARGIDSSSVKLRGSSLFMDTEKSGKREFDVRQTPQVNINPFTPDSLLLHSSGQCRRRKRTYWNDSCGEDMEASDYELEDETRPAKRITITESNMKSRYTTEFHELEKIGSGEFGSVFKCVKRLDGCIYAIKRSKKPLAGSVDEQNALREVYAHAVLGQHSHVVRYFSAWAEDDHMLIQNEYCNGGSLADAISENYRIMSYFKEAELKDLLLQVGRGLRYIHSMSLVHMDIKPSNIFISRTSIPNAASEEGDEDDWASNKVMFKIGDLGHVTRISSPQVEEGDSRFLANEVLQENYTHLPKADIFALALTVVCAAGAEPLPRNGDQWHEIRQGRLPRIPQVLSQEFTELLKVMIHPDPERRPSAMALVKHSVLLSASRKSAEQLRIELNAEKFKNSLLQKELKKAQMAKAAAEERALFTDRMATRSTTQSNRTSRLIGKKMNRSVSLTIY

Structure (SMILES) | GI50 [1] [µM] | IC50 [2, 6] [µM] | Selectivity ratio KYSE30 Gl50 vs. OVCAR3 Gl50 [3] | IC50 [4] [µM] | IC50 ([5]; WEE1 15 nM, banded values) [µM] | PKMYT1 vs. WEE1 selectivity ([5]; banded) | IC50 ([2]; 15 nM PKMYT1 kinase domain, 500 µM ATP, 60 minutes at 26° C., banded) [µM] | IC50 ([5]; 15 nM WEE1, 60 minutes at 26° C., banded) [µM] | PKMYT1 vs. WEE1 selectivity ([5]; banded, ">N" = at least in this band but could be higher)
Cc1ccc(F)c(Nc2ncc(C(=O)Nc3c(C)ccc(O)c3C)s2)n1 [BAA-420, 2-((3-fluoro-6-methylpyridin-2-yl)amino)-N-(3-hydroxy-2,6-dimethylphenyl)thiazole-5-carboxamide] | 0.5 to 5 | < 0.05 | Y (>20 fold) | < 0.1 | > 11 | Y (1000-5000 fold) |  |  | 
Cc1ccc(O)c(C)c1NC(=O)c1cnc(Nc2nn(C)c3ccc(F)cc23)s1 [BAA-453, 2-((5-fluoro-1-methyl-1H-indazol-3-yl)amino)-N-(3-hydroxy-2,6-dimethylphenyl)thiazole-5-carboxamide] | > 5 | 0.05 to 1 | Y (>20 fold) | < 0.1 | > 11 | X (100-<1000 fold) |  |  | 
Cc1ccc(O)c(C)c1NC(=O)c1cnc(Nc2nn(CC(F)F)cc2Cl)s1 [BAA-569, 2-((4-chloro-1-(2,2-difluoroethyl)-1H-pyrazol-3-yl)amino)-N-(3-hydroxy-2,6-dimethylphenyl)thiazole-5-carboxamide] | 0.5 to 5 | < 0.05 | Y (>20 fold) | < 0.1 | 1 to 11 | X (100-<1000 fold) |  |  | 
Cc1ccc(O)c(C)c1NC(=O)c1cnc(Nc2cccc(N(C)CCC#N)n2)s1 [BAA-401, 2-((6-((2-cyanoethyl)(methyl)amino)pyridin-2-yl)amino)-N-(3-hydroxy-2,6-dimethylphenyl)thiazole-5-carboxamide] | 0.5 to 5 | < 0.05 | Y (>20 fold) | < 0.1 | 1 to 11 | W (10-<100 fold) |  |  | 
Cc1ccc(O)c(C)c1NC(=O)c1cnc(Nc2nn(CC#N)cc2Br)s1 [BAA-586, 2-((4-bromo-1-(cyanomethyl)-1H-pyrazol-3-yl)amino)-N-(3-hydroxy-2,6-dimethylphenyl)thiazole-5-carboxamide] | 0.5 to 5 | < 0.05 | X (3-20 fold) | < 0.1 | 0.05 to 1 | W (10-<100 fold) |  |  | 
Cc1ccc(O)c(C)c1NC(=O)c1cnc(Nc2cccc(N3CCN(C)CC3)n2)s1 [BAA-423, N-(3-hydroxy-2,6-dimethylphenyl)-2-((6-(4-methylpiperazin-1-yl)pyridin-2-yl)amino)thiazole-5-carboxamide] | 0.5 to 5 | < 0.05 | Y (>20 fold) | < 0.1 | 1 to 11 | W (10-<100 fold) |  |  | 
Cc1ccc(O)c(C)c1NC(=O)c1cnc(Nc2cc(Cl)cc(NC(=O)C(C)(C)C)n2)s1.Cl [BAA-334, 2-((4-chloro-6-pivalamidopyridin-2-yl)amino)-N-(3-hydroxy-2,6-dimethylphenyl)thiazole-5-carboxamide hydrochloride] | 0.5 to 5 |  | Y (>20 fold) | < 0.1 |  |  | 0.05 to 1 | > 11 | X (100-<1000 fold)
Cc1ccc(O)c(C)c1NC(=O)c1cnc(Nc2cc(N3CCOCC3)ncn2)s1 [BAA-571, N-(3-hydroxy-2,6-dimethylphenyl)-2-((6-morpholinopyrimidin-4-yl)amino)thiazole-5-carboxamide] | 0.5 to 5 | < 0.05 | Y (>20 fold) | < 0.1 | 0.05 to 1 | W (10-<100 fold) |  |  | 
